Source: PubChem BioAssay AID504313 (Emory University Molecular Libraries Screening Center, 2011)
Activity calls are given as the source filed them. No rule for the calls is given here.

Target: X-box-binding protein 1 (Homo sapiens) (UniProt P17861)
Experiment: XBP1 reporter suppression in cells – counter-screen, dose response (AID 504313);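 also: CHO cells carrying an XBP1 reporter stimulated with tunicamycin; potency is for inhibition of the tunicamycin-induced reporter signal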
Settings: XBP1 reporter cell assay, percent of control

SMILES	IC50
CC(C)Cn1c(N)c(C(=O)COC(=O)C2CCCCC2)c(=O)n(C)c1=O	> 10 µM (inactive)
CCSc1nc2ccccc2n1C(=O)/C=C\c1ccc(OC)c(OC)c1	4.66 µM
Cc1ccc(N2C(=O)NC(=O)/C(=C\C=C\c3ccco3)C2=O)cc1C	> 10 µM (inactive)
CC(C)(C)c1ccc(C(=O)Nc2ccc(CC(=O)O)cc2)o1	< 0.16 µM
COc1ccc([C@H]2Oc3cc(O)cc(O)c3C(=O)C2[C@@H]2C(=O)c3c(O)cc(O)cc3O[C@@H]2c2ccc(OC)cc2)cc1 (stereo partly specified)	> 10 µM (inactive)
Cc1cccc(NC(=S)NC(NC(=O)OCc2ccccc2)C(Cl)(Cl)Cl)c1 (stereo unspecified)	> 10 µM (inactive)
O=C(COc1ccc(Cl)cc1Cl)Nc1ccccn1	inactive
Cn1c(=O)[nH]c(=O)c2c1nc([N+](=O)[O-])n2Cc1ccccc1	inactive
COc1ccc2nc(Nc3nc(CSc4nc5ccccc5[nH]4)cc(=O)[nH]3)nc(C)c2c1	> 10 µM (inactive)
O=c1c(Br)c(Br)cnn1-c1ccccc1	inactive
COc1cc(NC(=O)COc2ccccc2[N+](=O)[O-])ccc1NC(=O)c1cccs1	> 10 µM (inactive)
COc1ccc(-c2nc(NC(=O)Cn3ccc(C(F)(F)F)n3)sc2C)cc1	> 10 µM (inactive)
Cc1ccc(S(=O)(=O)/N=C2/C=C(Sc3ncn[nH]3)C(=O)c3ccccc32)cc1	inactive
CCCCCCn1c(N2CCC(C)CC2)nc2c1c(=O)[nH]c(=O)n2C	> 10 µM (inactive)
O=C(c1ccc(Cl)cc1)c1c[nH]c(C(=O)NNc2cccc(Cl)n2)c1	> 10 µM (inactive)
Cc1cccc(/C=N/Nc2ccc3ccccc3n2)c1	inactive
CC1=CCC[C@@H]2[C@@](C)(CC/C(C)=C/C(=O)O)[C@H](C)CC[C@@]12C	> 10 µM (inactive)
O=C(Nc1ccc(C(F)(F)F)cc1)c1cc(-c2cccnc2)nc2ccc(Br)cc12	> 10 µM (inactive)
Cc1nc(SCC(=O)Nc2cc(C)on2)c2c3c(sc2n1)CCCC3	> 10 µM (inactive)
CCc1ccc(/C=C2\SC(=S)N(CCCC(=O)Nc3ccccn3)C2=O)cc1	< 0.16 µM
Cc1cc(Cl)ccc1OCC(=O)N[C@@H](Cc1ccccc1)c1nc2ccccc2[nH]1	> 10 µM (inactive)
C/C(=C\c1ccco1)C1C(C#N)=C(N)Oc2n[nH]c(-c3ccc(C)cc3)c21 (stereo unspecified)	> 10 µM (inactive)
COc1ccc(C(=O)NNC(=O)c2ccccn2)cc1	inactive
Cc1cccc(C(=O)c2cnc3ccccc3c2-c2ccccc2)c1	> 10 µM (inactive)

SMILES	IC50
CCNc1nc(Oc2c(Cl)cccc2Cl)cc(C(F)(F)F)n1	> 10 µM (inactive)
O=c1c2ccccc2nc2n1CCN2Cc1ccc(Cl)cc1	> 10 µM (inactive)
C=CCn1c(CCc2cc(C(C)(C)C)c(O)c(C(C)(C)C)c2)n[nH]c1=S	inactive
Cc1ccc2[nH]c(O)c(N=NC(=O)CCc3ccccc3)c2c1Br	inactive
Oc1cccc(-c2nc3c4c(ncn3n2)-c2ccccc2CC42CCCC2)c1	> 10 µM (inactive)
Fc1ccc(Nc2nc(NCc3ccco3)c3ccccc3n2)cc1	> 10 µM (inactive)
CS(=O)(=O)c1nc(-c2ccc(F)cc2)cc(C(F)(F)F)n1	inactive
CCCc1cc(-c2nc(N)ncc2-c2ccc3c(c2)OCCCO3)c(O)cc1OC	5.01 µM
CC1=C/C(=N\OS(=O)(=O)c2ccccc2)C=CC1=O	2.9 µM
Cc1nc2c(=O)n(C)c(=O)n(C)c2nc1Cl	inactive
Cc1cc(/C=N/n2cnnc2)c(C)n1-c1ccc(OCc2ccc(F)cc2)cc1	inactive
Cc1ccc(COc2ccc(Br)cc2/C=N/O)cc1	> 10 µM (inactive)
COc1ccc(OC)c2sc(NC(=O)c3ccc(Cl)s3)nc12	> 10 µM (inactive)
O=C(N/N=C/c1cccs1)c1cccc(NC(=O)c2ccc(Cl)cc2)c1	inactive
Cn1cnc([N+](=O)[O-])c1S(=O)(=O)c1cccc(Cl)c1	inactive
COc1ccc(NC(=O)c2cc(-c3cc(C)cc(C)c3O)n[nH]2)cc1Cl	> 10 µM (inactive)
Cc1ccc(-c2nc(N)sc2-c2ccc(C)cc2)cc1	> 10 µM (inactive)
O=C(Nc1ccccc1)Nc1cc(OCC(F)(F)F)cc(OCC(F)(F)F)c1	3.95 µM
CCN1/C(=C/C(C)=C/c2sc3ccccc3[n+]2CC)Sc2ccccc21	> 10 µM (inactive)
O=[N+]([O-])c1ccc(-c2nc(C(Cl)Cl)c3ccccc3n2)cc1	1.34 µM
CC1(C)C[C@H]2C=C(C=O)[C@]3(C=O)C[C@]3(C)[C@H]2C1	2.35 µM
O=S1(=O)C=C(Sc2nnc(-c3ccccc3)o2)c2ccccc21	inactive
CCCCCCCCCS(=O)(=O)N/N=C/c1cccc([N+](=O)[O-])c1	inactive
O=S(=O)(/C(=C/c1ccc(C(F)(F)F)cc1)c1nc2ccccc2[nH]1)c1ccccc1	2.22 µM

SMILES	IC50
O=C1C(=O)c2ccc(-c3ccccc3)cc2-c2ccccc21	3.26 µM
O=C(NC1CCCCC1)C(c1ccc(F)cc1)N(Cc1ccccc1)C(=O)CN1C(=O)c2ccccc2S1(=O)=O (stereo unspecified)	inactive
COc1ccc(C(C(=O)NC2CCCCC2)N(C(=O)CCl)c2cccc(Cl)c2)cc1 (stereo unspecified)	inactive
Cc1ccc2nc(-c3cc(-c4ccccc4)no3)cn2c1	> 10 µM (inactive)
COc1ccc(C(=O)c2c(C(F)(F)F)oc3c2C(=O)c2ccccc2C3=O)cc1	inactive
O=C(c1ccco1)N1CCN(c2c(-c3ccccc3)c3cc(Cl)ccc3[nH]c2=O)CC1	> 10 µM (inactive)
CCc1ccc(C(=O)/C=C/c2ccc([N+](=O)[O-])o2)cc1	> 10 µM (inactive)
C=C(C)COc1ccc(-c2n[nH]c(C)c2-c2ccccc2OC)c(O)c1	> 10 µM (inactive)
COc1ccc(NC(=O)/C(Cl)=C(/Cl)S(=O)(=O)Cc2ccc(C)cc2)cn1	inactive
O=c1c(Cl)c(Cl)cnn1Cc1nnc(-c2ccccc2Br)o1	inactive
CCN1C=CC(=C2C(=O)c3ccccc3C2=O)C=C1	inactive
CCC(C)(C)c1ccc(Oc2ccc(N)cc2)cc1	< 0.16 µM
CN(C)c1ccc(/C=C2\SC(=O)N(CCc3nnc(N)s3)C2=O)cc1	inactive
CCOC(=O)C1=C(O)/C(=C/c2ccc(CNC(=O)C(=O)Nc3ccc(C)cc3)o2)N=C1C	> 10 µM (inactive)
CC(=O)OCC1O[C@@H](O[C@@H]2C[C@H]3C(C)(C)[C@H](OC(C)=O)CC[C@]3(C)[C@H]3CC[C@]45C[C@]4(CC[C@H]5[C@@H](C)C[C@@H](O)[C@H](O)C(C)(C)O)[C@@]32C)[C@H](O)[C@@H](O)[C@@H]1O (stereo partly specified)	inactive
CCCCC(CC)Cn1c(N)c(C#N)c2nc3ccccc3nc21 (stereo unspecified)	inactive
CCC(CC)c1nnc(NC(=O)c2c(C)nn(Cc3ccccc3Cl)c2C)s1	> 10 µM (inactive)
CCCCCCCCCCCCCCCCn1cc[n+](C)c1	inactive
COc1ccc(C(=O)/C=C/C(=O)N(CC(=O)NCCC(C)C)Cc2cccs2)c(O)c1	inactive
CCN(CCO)c1ncnc2c1sc1nc(C(C)C)c3c(c12)CC(C)(C)OC3	> 10 µM (inactive)
O=[N+]([O-])c1ccc(/C=N/N=C/c2ccc([N+](=O)[O-])o2)o1	2.59 µM
COc1ccccc1C(=O)NC(=Nc1nc2ccccc2o1)NC(=O)c1ccccc1OC	inactive
CC(C)=NOc1cc(NC(=O)CCl)cc([N+](=O)[O-])c1	inactive
